System: histamine induced nasal congestion

With `NCCc1c[nH]cn1` [Histamine, histamine] the “induction of nasal congestion” value (5% histamine aerosol for 5 minutes) was “induced congestion in all animals to varying degrees”, the “nasal congestion and flow restriction pressure” value (5 and 10 minutes post-histamine exposure, Group 1) was “progressive increase in nasal congestion and flow restriction pressure” and the “histamine induced congestion without epinephrine” value (pilot study, 60, 80 and 100 minute time points) was “remains elevated at significant levels”.

— patent US20210093558A1 (Bryn Pharma, LLC, priority 2018, published 2021)
